Assay results published in patent US20200085839A1, “COMBINATION OF IMMUNOTHERAPEUTICS AND BISFLUOROALKYL-1,4-BENZODIAZEPINONE COMPOUNDS FOR TREATING LYMPHOMAS” (Ayala Pharmaceuticals Inc., priority 2018, published 2020).
Like-named read-outs stand apart in the source and are kept apart here.

Key:
Test in all cases: Cell surface BCMA by FACS
Assay type in all cases: cell-based, human
[1] = system: TUR cells (Histiocytic Lymphoma); settings: for EC50: Homo sapiens
Procedure: (§1) […] cell lines, comprising 9 subtypes of lymphomas (see Table 1), were seeded at 1×10^5 cells/well in a total volume of 250 μl into a 96-well plate. The cells were cultured in RPMI medium supplemented with 10% FCS. Compound (22) was added to the cell cultures at a concentration of 10 μM, 1 μM, 100 nM, 10 nM, 1 nM, 100 pM, 10 pM, 1 pM, and 100 fM, and cell lines (8 from Hadassah Medical Center, 31 from Eurofins) were incubated at 37° C. for 24 hours with Compound (22). Following incubation, the cells were collected and BCMA levels were evaluated on the cell surface for cell-bound BCMA. Cells were stained with an anti-BCMA antibody (PE anti-human 19F2 BCMA, Biolegend), and cell surface BCMA levels were determined by FACS analysis (Mean Fluorescence Intensity. Soluble BCMA levels were analyzed by ELISA (Human BCMA/TNFRSF17 DuoSet kit: R&D Systems).

[2] = system: NU-DUL-1 cells (B-cell Lymphoma); settings: for EC50: Homo sapiens
Procedure: as §1

[3] = system: ST486 cells (DLBCL); settings: for EC50: Homo sapiens
Procedure: as §1

[4] = system: SUDHL-8 cells (DLBCL); settings: for EC50: Homo sapiens
Procedure: as §1

[5] = system: GA-10 cells (Burkitt's Lymphoma); settings: for EC50: Homo sapiens
Procedure: as §1

[6] = system: Namalwa cells (Burkitt's Lymphoma); settings: for EC50: Homo sapiens
Procedure: as §1

[7] = system: Jiyoye cells (Burkitt's Lymphoma); settings: for EC50: Homo sapiens
Procedure: as §1

[8] = system: REC-1 cells (Mantle Cell Lymphoma); settings: for EC50: Homo sapiens
Procedure: as §1

[9] = system: Raji cells (Burkitt's Lymphoma); settings: for EC50: Homo sapiens
Procedure: as §1

[10] = system: HT cells (DLBCL)
Procedure: as §1

[11] = 24 h, read-out: BCMA (Mean Fluorescence Intensity) EC50

## Cc1cccc2c1NC(=O)[C@@H](NC(=O)[C@H](CCC(F)(F)F)[C@H](CCC(F)(F)F)C(N)=O)N=C2c1cccc(F)c1 [Compound (22), (2R,3S)—N-((3S)-5-(3-fluorophenyl)-9-methyl-2-oxo-2,3-dihydro-1H-1,4-benzodiazepin-3-yl)-2,3-bis(3,3,3-trifluoropropyl)succinamide]
[1]
  mBCMA (MFI) Fold Increase: 1.0 fold
[1]; 1 nM, 24 h
  BCMA (Mean Fluorescence Intensity) 1 nM Compound (22): 464
[1]; 100 nM, 24 h
  BCMA (Mean Fluorescence Intensity) 100 nM Compound (22): 462
[1]; [11]
  EC50: > 10000 nM
[1]; read-out: mBCMA (MFI) EC50
  EC50: > 10000 nM
[2]
  mBCMA (MFI) Fold Increase: 7.0 fold
[2]; 1 nM, 24 h
  BCMA (Mean Fluorescence Intensity) 1 nM Compound (22): 3892
[2]; 100 nM, 24 h
  BCMA (Mean Fluorescence Intensity) 100 nM Compound (22): 4665
[2]; [11]
  EC50: 0.61 nM
[2]; read-out: mBCMA (MFI) EC50
  EC50: 0.61 nM
[3]
  mBCMA (MFI) Fold Increase: 4.5 fold
[3]; 1 nM, 24 h
  BCMA (Mean Fluorescence Intensity) 1 nM Compound (22): 10564
[3]; 100 nM, 24 h
  BCMA (Mean Fluorescence Intensity) 100 nM Compound (22): 13410
[3]; [11]
  EC50: 0.58 nM
[3]; read-out: mBCMA (MFI) EC50
  EC50: 0.58 nM
[4]
  mBCMA (MFI) Fold Increase: 1.7 fold
[4]; 1 nM, 24 h
  BCMA (Mean Fluorescence Intensity) 1 nM Compound (22): 350
[4]; 100 nM, 24 h
  BCMA (Mean Fluorescence Intensity) 100 nM Compound (22): 414
[4]; SU-DHL-8, 24 h, read-out: BCMA (Mean Fluorescence Intensity) EC50
  EC50: > 10000 nM
[4]; SU-DHL-8, read-out: mBCMA (MFI) EC50
  EC50: > 10000 nM
[5]
  mBCMA (MFI) Fold Increase: 5.6 fold
[5]; 1 nM, 24 h
  BCMA (Mean Fluorescence Intensity) 1 nM Compound (22): 41993
[5]; 100 nM, 24 h
  BCMA (Mean Fluorescence Intensity) 100 nM Compound (22): 51080
[5]; [11]
  EC50: 0.56 nM
[5]; read-out: mBCMA (MFI) EC50
  EC50: 0.56 nM
[6]
  mBCMA (MFI) Fold Increase: 2.0 fold
[6]; 1 nM, 24 h
  BCMA (Mean Fluorescence Intensity) 1 nM Compound (22): 1395
[6]; 100 nM, 24 h
  BCMA (Mean Fluorescence Intensity) 100 nM Compound (22): 1690
[6]; [11]
  EC50: 10.7 nM
[6]; read-out: mBCMA (MFI) EC50
  EC50: 10.7 nM
[7]; JIYOYE, read-out: mBCMA (MFI) EC50
  EC50: 7.6 nM
[7]; Jiyoye, 24 h, read-out: BCMA (Mean Fluorescence Intensity) EC50
  EC50: 7.6 nM
[7]; Jiyoye
  mBCMA (MFI) Fold Increase: 4.2 fold
[7]; Jiyoye, 1 nM, 24 h
  BCMA (Mean Fluorescence Intensity) 1 nM Compound (22): 1864
[7]; Jiyoye, 100 nM, 24 h
  BCMA (Mean Fluorescence Intensity) 100 nM Compound (22): 2616
[7]; Jiyoye, FIG. 8A
  cell-bound BCMA: increased cell-bound BCMA
[8]
  mBCMA (MFI) Fold Increase: 1.0 fold
[8]; 1 nM, 24 h
  BCMA (Mean Fluorescence Intensity) 1 nM Compound (22): 217
[8]; 100 nM, 24 h
  BCMA (Mean Fluorescence Intensity) 100 nM Compound (22): 243
[8]; Rec1, 24 h, read-out: BCMA (Mean Fluorescence Intensity) EC50
  EC50: > 10000 nM
[8]; Rec1, read-out: mBCMA (MFI) EC50
  EC50: > 10000 nM
[9]
  mBCMA (MFI) Fold Increase: 2.2 fold
[9]; 1 nM, 24 h
  BCMA (Mean Fluorescence Intensity) 1 nM Compound (22): 521
[9]; 100 nM, 24 h
  BCMA (Mean Fluorescence Intensity) 100 nM Compound (22): 650
[9]; [11]
  EC50: 1.1 nM
[9]; read-out: mBCMA (MFI) EC50
  EC50: 1.1 nM
[10]
  mBCMA (MFI) Fold Increase: 3.2 fold
[10]; 1 nM, 24 h
  BCMA (Mean Fluorescence Intensity) 1 nM Compound (22): 488
